Here are results for 9 compounds from US5364867A, “4-phenylpiperdine agents for treating cns disorders” (Sterling Winthrop Inc., priority 1992, dated 1994).

The target of this assay is sigma receptors. Nature of the assay: sigma receptor binding, [3H]di(2-tolyl)-guanidine (DTG) assay, guinea pig brain membranes. Conditions: [3H]DTG approximately 4 nM; male Hartley guinea pig brain membranes; 25° C. for 90 min; nonspecific binding 10 μM haloperidol. As to the method:
Brain tissue was prepared from male Hartley guinea pigs (Hazelton Labs, Denver, Pa.) which were anesthetized with CO2 and sacrificed by decapitation. All animal care and use procedures were in accord with the "Guide for the Care and Use of Laboratory Animals" (NIH Publ. No. 86-23, 1985). Homogenization was performed in 10 volumes (wt/vol) of 0.32M sucrose with a Brinkmann Polytron at setting 5, 30 sec. The homogenate was centrifuged at 900×g for 10 min at 4° C., and the supernatant was collected and centrifuged at 22,000×g for 20 min at 4° C. The pellet was resuspended in 10 volumes of Tris-HCl buffer (50 mM, pH 7.4), incubated at 37° C. for 30 min and centrifuged at 22,000×g for 20 min at 4° C. Following this, the pellet was resuspended in Tris buffer and frozen in 5-10 mL aliquots corresponding to a tissue concentration of 100 mg/mL at -70° C. Binding characteristics of the membranes were stable for at least one month when stored at -70° C.
On the day of the assay, membrane aliquots were thawed, resuspended in fresh Tris buffer and stored on ice until use. Each assay tube contained 100 μL of [^3 H](+)pentazocine at a final concentration of approximately 0.5 nM, [^3 H]di(2-tolyl)-guanidine (DTG) at a final concentration of approximately 4 nM, 100 μL of various concentrations of the compounds of interest, 500 μL of the tissue suspension and 300 μL of buffer to a final assay volume of 1 mL and a final tissue concentration of approximately 8 mg/tube, corresponding to approximately 0.15 mg protein/tube. Nonspecific binding was defined by addition of a final concentration of 1 μM haloperidol to blank tubes for the [^3 H](+)pentazocine assay or by addition at a final concentration of 10 μM haloperidol to blank tubes for [^3 H] DTG assay. All tubes were incubated at 37° C. for 150 min ([^3 H](+)pentazocine) or at 25° C. for 90 min ([^3 H]DTG) before termination of the reaction by filtration over Whatman GF/B glass fiber filters that were presoaked in a solution of 0.5% polyethyleneimine for at lease 1 hr prior to use. Filters were washed with three 4 mL volumes of cold Tris-HCl buffer.
Following addition of scintillation cocktail, samples were allowed to equilibrate for at least 4 hr. The amount of bound radioactivity was determined by liquid scintillation spectrometry using a Beckman LS 5000 TA liquid scintillation counter with an efficiency for tritium of approximately 60%. The results are reported as a percent (%) inhibit ion of binding at 10 μM.
Data obtained on the compounds in the di(2-tolyl)guanidine (DTG) and d-pentazocine (+Pent) assays are expressed as a Ki value in nM. The number of determinations follow this value in parentheses.

Molecules are shown by their SMILES. Structures can show the parent of a compound that is named as a salt.

The Ki is the dissociation constant of the complex between target and ligand, obtained from inhibition or displacement. Higher therefore signals a looser hold on the target. The compound `CCC(=O)C1(c2ccccc2)CCN(CCCc2ccccc2)CC1` [Example 5, 4-Phenyl-1-(3-phenylpropyl)-4-propionylpiperidine] showed a Ki of 9.1 nM.

In turn, `COc1cccc(C2CCN(CCCc3ccccc3)CC2)c1` [Example 3a, 4-(3-methoxyphenyl)-1-(3-phenylpropyl)piperidine hydrochloride] had a Ki of 2.21 nM.

Compound `CCOC(=O)C1(c2ccccc2)CCN(CCCc2ccccc2)CC1` [Example 7, Ethyl 4-Phenyl-1-(3-phenylpropyl)-4-piperidinecarboxylate] yielded a Ki of 88.9 nM.

`O=C(CCc1ccccc1)N1CCC(O)(c2ccccc2)CC1` [Example 1, 4-Phenyl-4-hyroxy-1-(3-phenylpropionyl) piperidine] returned a Ki of 34400 nM.

On to `O=C(N1CCCC1)C1(c2ccccc2)CCN(CCCc2ccccc2)CC1` [Example 2b, 4-Phenyl-1-(3-phenylpropyl)-4-(1-pyrrolidinylcarbonyl)piperidine], for which affinity was put at a Ki of 116 nM.

For `O=C(c1ccccc1)C1(c2ccccc2)CCN(CCCc2ccccc2)CC1` [Example 4, 4-benzoyl-4-phenyl-1-(3-phenylpropyl)piperidine], affinity was put at a Ki of 22.1 nM.

For the compound `Oc1cccc(C2CCN(CCCc3ccccc3)CC2)c1` [Example 3b, 4-(3-hydroxyphenyl)-1-(3-phenylpropyl)piperidine hydrochloride], the Ki was 0.65 nM.

In the case of `CCC(=O)OC1(c2ccccc2)CCN(CCC(=NO)c2ccccc2)CC1` [Example 6, 4-Phenyl-1-(3-oximino-3-phenylpropyl)-4-propionoxypiperidine], the Ki amounted to 589 nM.

Consider `O=C(O)C1(c2ccccc2)CCN(CCCc2ccccc2)CC1` [Example 2a, 4-phenyl-1-(3-phenylpropyl)-4-piperidinecarboxylic acid], for which the affinity corresponds to a Ki of 16.4 nM.
